Experimental data published in the kinase profiling compilation of Christmann-Franck et al. (2016).

Assays:
Assay in all cases: KINOMEscan competition binding
Settings in all cases: compound 10.0 µM
CDK11B (human) = CDK11B (human) (UniProt P21127)
CDK16 (human) = CDK16 (human) (UniProt Q00536)
CDK18 (human) = CDK18 (human) (UniProt Q07002)
CDK4 CCND3 (human) = CDK4 CCND3 (human) (UniProt P11802+P30281)
CDKL2 (human) = CDKL2 (human) (UniProt Q92772)
CDKL5 (human) = CDKL5 (human) (UniProt O76039)
CLK3 (human) = CLK3 (human) (UniProt P49761)
CPK1 (P.falciparum) = test system: CPK1 (P.falciparum)
CaMK1 (human) = CaMK1 (human) (UniProt Q14012)
[1] = test system: EGFR (human), P00533 [752-759 del]
EPHA2 (human) = EPHA2 (human) (UniProt P29317)
FGFR2 (human) = FGFR2 (human) (UniProt P21802)
FGR (human) = FGR (human) (UniProt P09769)
FLT4 (human) = FLT4 (human) (UniProt P35916)
GRK1 (human) = GRK1 (human) (UniProt Q15835)
GRK4 (human) = GRK4 (human) (UniProt P32298)
GRK7 (human) = GRK7 (human) (UniProt Q8WTQ7)
[2] = target: JAK1 JH1 catalytic (human) (UniProt P23458)
LCK (human) = LCK (human) (UniProt P06239)
MAP2K6 (human) = MAP2K6 (human) (UniProt P52564)
MAP3K10 (human) = MAP3K10 (human) (UniProt Q02779)
MKNK2 (human) = MKNK2 (human) (UniProt Q9HBH9)
MLTK (human) = MLTK (human) (UniProt Q9NYL2)
MUSK (human) = MUSK (human) (UniProt O15146)
NTRK2 (human) = NTRK2 (human) (UniProt Q16620)
PDGFRA (human) = PDGFRA (human) (UniProt P16234)
PIP4K2C (human) = PIP4K2C (human) (UniProt Q8TBX8)
PKN3 (M.tuberculosis) = PKN3 (M.tuberculosis) (UniProt Q6P5Z2)
PTK2B (human) = PTK2B (human) (UniProt Q14289)
[3] = test system: RET (human), P07949 [V804M]
ROCK1 (human) = ROCK1 (human) (UniProt Q13464)
SIK2 (human) = SIK2 (human) (UniProt Q9H0K1)
SRPK2 (human) = SRPK2 (human) (UniProt P78362)
STK24 (human) = STK24 (human) (UniProt Q9Y6E0)
STK33 (human) = STK33 (human) (UniProt Q9BYT3)
STK38L (human) = STK38L (human) (UniProt Q9Y2H1)
TAOK2 (human) = TAOK2 (human) (UniProt Q9UL54)
TLK1 (human) = TLK1 (human) (UniProt Q9UKI8)
YES1 (human) = YES1 (human) (UniProt P07947)
YSK4 (human) = YSK4 (human) (UniProt Q56UN5)

EGFR (human), P00533 [752-759 del], sequence (P00533 whole entry, looked up, stated change not applied): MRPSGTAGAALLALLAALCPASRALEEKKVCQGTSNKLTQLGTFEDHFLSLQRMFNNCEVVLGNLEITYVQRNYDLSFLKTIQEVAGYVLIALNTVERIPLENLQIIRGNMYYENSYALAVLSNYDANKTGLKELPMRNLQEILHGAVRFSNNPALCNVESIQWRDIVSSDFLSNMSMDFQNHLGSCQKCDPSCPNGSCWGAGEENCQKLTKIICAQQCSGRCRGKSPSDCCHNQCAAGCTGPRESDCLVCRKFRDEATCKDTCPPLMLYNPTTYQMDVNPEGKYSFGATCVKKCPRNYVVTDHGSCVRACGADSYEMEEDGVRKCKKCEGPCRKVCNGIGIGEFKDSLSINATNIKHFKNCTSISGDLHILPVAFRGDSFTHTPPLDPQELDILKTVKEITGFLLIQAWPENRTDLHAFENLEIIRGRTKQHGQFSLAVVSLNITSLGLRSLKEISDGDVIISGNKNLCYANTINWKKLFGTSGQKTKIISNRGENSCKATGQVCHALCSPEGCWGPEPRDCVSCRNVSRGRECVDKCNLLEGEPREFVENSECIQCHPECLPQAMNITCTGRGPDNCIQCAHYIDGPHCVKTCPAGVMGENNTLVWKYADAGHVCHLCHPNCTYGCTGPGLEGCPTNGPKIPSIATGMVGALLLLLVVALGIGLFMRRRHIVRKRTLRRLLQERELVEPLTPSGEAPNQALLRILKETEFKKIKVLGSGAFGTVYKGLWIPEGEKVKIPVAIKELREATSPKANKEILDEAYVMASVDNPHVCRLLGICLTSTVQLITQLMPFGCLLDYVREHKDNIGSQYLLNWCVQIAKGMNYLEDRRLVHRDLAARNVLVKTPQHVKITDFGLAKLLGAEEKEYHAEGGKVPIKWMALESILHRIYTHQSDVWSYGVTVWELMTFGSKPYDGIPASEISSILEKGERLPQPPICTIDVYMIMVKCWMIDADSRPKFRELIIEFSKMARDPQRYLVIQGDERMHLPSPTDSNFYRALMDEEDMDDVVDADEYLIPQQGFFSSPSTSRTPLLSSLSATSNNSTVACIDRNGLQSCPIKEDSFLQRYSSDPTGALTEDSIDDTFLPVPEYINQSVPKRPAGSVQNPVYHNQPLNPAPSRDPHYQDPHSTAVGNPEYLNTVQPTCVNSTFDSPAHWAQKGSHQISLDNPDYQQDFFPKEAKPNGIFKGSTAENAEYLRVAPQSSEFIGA
GRK4 (human), sequence (P32298 whole entry, looked up): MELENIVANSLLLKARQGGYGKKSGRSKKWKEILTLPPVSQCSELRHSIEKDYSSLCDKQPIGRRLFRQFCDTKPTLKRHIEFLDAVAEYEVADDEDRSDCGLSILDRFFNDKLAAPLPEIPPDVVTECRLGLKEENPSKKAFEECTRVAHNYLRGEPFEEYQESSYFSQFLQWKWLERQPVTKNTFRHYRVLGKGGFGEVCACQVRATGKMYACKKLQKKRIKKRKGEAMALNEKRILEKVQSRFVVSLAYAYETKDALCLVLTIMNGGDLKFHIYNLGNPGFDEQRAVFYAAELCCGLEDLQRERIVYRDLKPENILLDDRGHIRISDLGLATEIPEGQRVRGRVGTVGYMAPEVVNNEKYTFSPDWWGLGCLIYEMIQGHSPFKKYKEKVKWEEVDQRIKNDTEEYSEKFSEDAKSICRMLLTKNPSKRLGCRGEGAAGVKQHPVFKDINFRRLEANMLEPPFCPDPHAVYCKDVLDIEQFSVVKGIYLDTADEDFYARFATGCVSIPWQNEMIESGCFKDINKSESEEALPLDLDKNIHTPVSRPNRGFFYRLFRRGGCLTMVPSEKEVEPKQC
TAOK2 (human), sequence (Q9UL54 whole entry, looked up): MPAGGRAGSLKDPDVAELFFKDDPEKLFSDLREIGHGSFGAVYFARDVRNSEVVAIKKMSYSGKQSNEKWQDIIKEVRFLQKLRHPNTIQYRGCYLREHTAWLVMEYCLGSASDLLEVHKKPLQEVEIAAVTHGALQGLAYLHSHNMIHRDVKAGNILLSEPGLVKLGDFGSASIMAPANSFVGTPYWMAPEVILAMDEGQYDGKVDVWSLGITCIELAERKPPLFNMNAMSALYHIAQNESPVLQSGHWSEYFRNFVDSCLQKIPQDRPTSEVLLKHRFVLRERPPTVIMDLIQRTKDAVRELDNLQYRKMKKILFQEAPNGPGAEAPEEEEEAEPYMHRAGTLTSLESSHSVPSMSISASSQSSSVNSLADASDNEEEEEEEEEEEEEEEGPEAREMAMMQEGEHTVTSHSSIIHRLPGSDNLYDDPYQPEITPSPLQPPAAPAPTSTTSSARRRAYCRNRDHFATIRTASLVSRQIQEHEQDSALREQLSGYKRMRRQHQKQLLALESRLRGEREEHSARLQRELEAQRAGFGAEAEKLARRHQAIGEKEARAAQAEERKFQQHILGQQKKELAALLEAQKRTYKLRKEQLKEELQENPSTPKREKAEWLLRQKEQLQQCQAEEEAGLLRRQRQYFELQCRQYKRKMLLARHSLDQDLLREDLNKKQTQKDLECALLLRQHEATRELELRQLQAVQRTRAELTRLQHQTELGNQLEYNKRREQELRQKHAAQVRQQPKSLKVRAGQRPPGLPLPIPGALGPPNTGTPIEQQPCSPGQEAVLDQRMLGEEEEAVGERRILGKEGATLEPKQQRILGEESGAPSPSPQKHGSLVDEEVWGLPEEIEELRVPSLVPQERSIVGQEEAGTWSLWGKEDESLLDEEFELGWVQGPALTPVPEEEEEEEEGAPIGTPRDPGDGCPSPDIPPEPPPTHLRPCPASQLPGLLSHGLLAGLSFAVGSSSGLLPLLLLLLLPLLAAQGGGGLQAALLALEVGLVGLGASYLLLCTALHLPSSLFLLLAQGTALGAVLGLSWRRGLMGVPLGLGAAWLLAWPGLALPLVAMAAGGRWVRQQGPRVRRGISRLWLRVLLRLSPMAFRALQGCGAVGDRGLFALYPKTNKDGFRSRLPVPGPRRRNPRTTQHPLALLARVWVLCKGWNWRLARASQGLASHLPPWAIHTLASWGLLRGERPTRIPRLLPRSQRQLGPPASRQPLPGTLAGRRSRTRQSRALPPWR
CaMK1 (human), sequence (Q14012 whole entry, looked up): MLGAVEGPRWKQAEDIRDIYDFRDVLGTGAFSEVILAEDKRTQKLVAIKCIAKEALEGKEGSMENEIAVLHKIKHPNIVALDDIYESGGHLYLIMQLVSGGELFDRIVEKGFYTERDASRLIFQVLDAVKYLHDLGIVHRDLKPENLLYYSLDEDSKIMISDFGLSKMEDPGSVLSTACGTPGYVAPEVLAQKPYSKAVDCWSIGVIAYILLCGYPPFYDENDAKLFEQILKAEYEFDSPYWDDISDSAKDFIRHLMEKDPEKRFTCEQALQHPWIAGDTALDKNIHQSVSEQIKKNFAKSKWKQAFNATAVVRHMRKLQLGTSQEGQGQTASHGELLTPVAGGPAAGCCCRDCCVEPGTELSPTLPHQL
MUSK (human), sequence (O15146 whole entry, looked up): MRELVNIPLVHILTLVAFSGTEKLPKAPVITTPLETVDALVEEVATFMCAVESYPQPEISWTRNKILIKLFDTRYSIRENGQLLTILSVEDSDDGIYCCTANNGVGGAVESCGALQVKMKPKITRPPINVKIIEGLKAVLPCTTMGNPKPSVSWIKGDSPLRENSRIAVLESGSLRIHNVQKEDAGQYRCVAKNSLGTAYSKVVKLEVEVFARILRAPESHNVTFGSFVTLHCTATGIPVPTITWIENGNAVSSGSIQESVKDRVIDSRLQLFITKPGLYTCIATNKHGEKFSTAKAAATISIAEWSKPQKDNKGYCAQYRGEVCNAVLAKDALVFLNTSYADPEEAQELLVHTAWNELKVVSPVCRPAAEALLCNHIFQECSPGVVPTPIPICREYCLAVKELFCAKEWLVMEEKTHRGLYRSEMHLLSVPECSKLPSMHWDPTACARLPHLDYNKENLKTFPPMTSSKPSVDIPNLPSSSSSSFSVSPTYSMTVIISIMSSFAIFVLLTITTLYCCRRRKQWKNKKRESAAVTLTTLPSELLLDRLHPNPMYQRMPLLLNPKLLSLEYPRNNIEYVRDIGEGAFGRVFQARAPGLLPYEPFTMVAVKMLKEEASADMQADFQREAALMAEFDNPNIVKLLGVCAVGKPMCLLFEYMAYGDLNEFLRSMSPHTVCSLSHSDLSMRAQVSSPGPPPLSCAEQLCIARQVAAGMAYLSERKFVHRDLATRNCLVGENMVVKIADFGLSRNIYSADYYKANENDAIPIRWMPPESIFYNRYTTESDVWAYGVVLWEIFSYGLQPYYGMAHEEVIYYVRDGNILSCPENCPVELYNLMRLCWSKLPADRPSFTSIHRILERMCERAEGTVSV
CDK11B (human), sequence (P21127 whole entry, looked up): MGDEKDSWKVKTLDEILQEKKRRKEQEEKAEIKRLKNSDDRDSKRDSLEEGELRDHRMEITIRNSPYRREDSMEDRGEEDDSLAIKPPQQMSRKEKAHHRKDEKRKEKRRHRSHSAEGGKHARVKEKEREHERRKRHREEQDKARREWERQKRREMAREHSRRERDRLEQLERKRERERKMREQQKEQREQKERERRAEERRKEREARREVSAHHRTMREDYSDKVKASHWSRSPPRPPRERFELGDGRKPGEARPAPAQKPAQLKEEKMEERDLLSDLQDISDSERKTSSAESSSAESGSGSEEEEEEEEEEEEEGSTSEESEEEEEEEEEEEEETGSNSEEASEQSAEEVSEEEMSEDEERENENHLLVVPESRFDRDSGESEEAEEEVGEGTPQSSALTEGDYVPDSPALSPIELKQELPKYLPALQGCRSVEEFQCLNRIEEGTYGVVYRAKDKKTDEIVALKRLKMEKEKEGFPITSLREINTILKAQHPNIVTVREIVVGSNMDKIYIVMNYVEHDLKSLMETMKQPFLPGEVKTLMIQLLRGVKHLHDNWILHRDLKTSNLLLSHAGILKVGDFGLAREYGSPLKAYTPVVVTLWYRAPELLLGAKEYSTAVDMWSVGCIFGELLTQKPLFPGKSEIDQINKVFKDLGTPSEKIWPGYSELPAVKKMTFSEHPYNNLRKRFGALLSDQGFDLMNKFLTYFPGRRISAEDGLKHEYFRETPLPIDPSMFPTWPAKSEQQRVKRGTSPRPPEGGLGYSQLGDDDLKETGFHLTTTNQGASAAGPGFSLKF

Row | SMILES | kinase still bound, per cent of control (CDK11B (human)) [%] | kinase still bound, per cent of control (CDK16 (human)) [%] | kinase still bound, per cent of control (CDK18 (human)) [%] | kinase still bound, per cent of control (CDK4 CCND3 (human)) [%] | kinase still bound, per cent of control (CDKL2 (human)) [%] | kinase still bound, per cent of control (CDKL5 (human)) [%] | kinase still bound, per cent of control (CLK3 (human)) [%] | kinase still bound, per cent of control (CPK1 (P.falciparum)) [%] | kinase still bound, per cent of control (CaMK1 (human)) [%] | kinase still bound, per cent of control [1] [%] | kinase still bound, per cent of control (EPHA2 (human)) [%] | kinase still bound, per cent of control (FGFR2 (human)) [%] | kinase still bound, per cent of control (FGR (human)) [%] | kinase still bound, per cent of control (FLT4 (human)) [%] | kinase still bound, per cent of control (GRK1 (human)) [%] | kinase still bound, per cent of control (GRK4 (human)) [%] | kinase still bound, per cent of control (GRK7 (human)) [%] | kinase still bound, per cent of control [2] [%] | kinase still bound, per cent of control (LCK (human)) [%] | kinase still bound, per cent of control (MAP2K6 (human)) [%] | other results
1 | CN(C)C/C=C/C(=O)Nc1ccc(C(=O)Nc2cccc(Nc3nccc(-c4cccnc4)n3)c2)cc1 | 91 | 91 | 95 | 100 | 33 | 60 | 100 | 100 | 94 | 88 | 97 | 86 | 86 | 97 | 98 | 29 | 98 | 100 | 100 | 47 | kinase still bound, per cent of control (MAP3K10 (human)): 94%; kinase still bound, per cent of control (MKNK2 (human)): 7.3%; kinase still bound, per cent of control (MLTK (human)): 62%; kinase still bound, per cent of control (MUSK (human)): 61%; kinase still bound, per cent of control (NTRK2 (human)): 69%; kinase still bound, per cent of control (PDGFRA (human)): 4%; kinase still bound, per cent of control (PIP4K2C (human)): 0.8%; kinase still bound, per cent of control (PKN3 (M.tuberculosis)): 84%; kinase still bound, per cent of control (PTK2B (human)): 100%; kinase still bound, per cent of control [3]: 74%; kinase still bound, per cent of control (ROCK1 (human)): 48%; kinase still bound, per cent of control (SIK2 (human)): 90%; kinase still bound, per cent of control (SRPK2 (human)): 100%; kinase still bound, per cent of control (STK24 (human)): 100%; kinase still bound, per cent of control (STK33 (human)): 100%; kinase still bound, per cent of control (STK38L (human)): 100%; kinase still bound, per cent of control (TAOK2 (human)): 70%; kinase still bound, per cent of control (TLK1 (human)): 92%; kinase still bound, per cent of control (YES1 (human)): 100%; kinase still bound, per cent of control (YSK4 (human)): 0.1%
2 | O=C(Nc1cccc(Nc2ncc(Br)c(NCCc3cnc[nH]3)n2)c1)N1CCCC1 | 66 | 40 | 100 | 0.35 | 4.7 | 1.8 | 74 | 3.8 | 11 | 66 | 60 | 4.6 | 13 | 0.05 | 47 | 5.6 | 34 | 0.25 | 3.4 | 22 | kinase still bound, per cent of control (MAP3K10 (human)): 0%; kinase still bound, per cent of control (MKNK2 (human)): 0.1%; kinase still bound, per cent of control (MLTK (human)): 12%; kinase still bound, per cent of control (MUSK (human)): 9.4%; kinase still bound, per cent of control (NTRK2 (human)): 0.45%; kinase still bound, per cent of control (PDGFRA (human)): 0.1%; kinase still bound, per cent of control (PIP4K2C (human)): 2%; kinase still bound, per cent of control (PKN3 (M.tuberculosis)): 6.6%; kinase still bound, per cent of control (PTK2B (human)): 8.2%; kinase still bound, per cent of control [3]: 0.05%; kinase still bound, per cent of control (ROCK1 (human)): 0.6%; kinase still bound, per cent of control (SIK2 (human)): 8%; kinase still bound, per cent of control (SRPK2 (human)): 5.4%; kinase still bound, per cent of control (STK24 (human)): 2%; kinase still bound, per cent of control (STK33 (human)): 0.8%; kinase still bound, per cent of control (STK38L (human)): 69%; kinase still bound, per cent of control (TAOK2 (human)): 5.3%; kinase still bound, per cent of control (TLK1 (human)): 37%; kinase still bound, per cent of control (YES1 (human)): 31%; kinase still bound, per cent of control (YSK4 (human)): 0%
3 | O=C1NC(=O)/C(=C/c2ccc3nccc(-c4ccncc4)c3c2)S1 | 95 | 71 | 56 | 100 | 64 | 76 | 0.05 | 11 | 65 | 95 | 95 | 100 | 69 | 98 | 22 | 47 | 5.4 | 95 | 62 | 69 | kinase still bound, per cent of control (MAP3K10 (human)): 60%; kinase still bound, per cent of control (MKNK2 (human)): 49%; kinase still bound, per cent of control (MLTK (human)): 16%; kinase still bound, per cent of control (MUSK (human)): 92%; kinase still bound, per cent of control (NTRK2 (human)): 73%; kinase still bound, per cent of control (PDGFRA (human)): 67%; kinase still bound, per cent of control (PIP4K2C (human)): 3.2%; kinase still bound, per cent of control (PKN3 (M.tuberculosis)): 36%; kinase still bound, per cent of control (PTK2B (human)): 86%; kinase still bound, per cent of control [3]: 96%; kinase still bound, per cent of control (ROCK1 (human)): 51%; kinase still bound, per cent of control (SIK2 (human)): 100%; kinase still bound, per cent of control (SRPK2 (human)): 86%; kinase still bound, per cent of control (STK24 (human)): 87%; kinase still bound, per cent of control (STK33 (human)): 0.55%; kinase still bound, per cent of control (STK38L (human)): 100%; kinase still bound, per cent of control (TAOK2 (human)): 50%; kinase still bound, per cent of control (TLK1 (human)): 81%; kinase still bound, per cent of control (YES1 (human)): 84%; kinase still bound, per cent of control (YSK4 (human)): 0.05%
